{"source": "patent US20130059783A1", "about": "“COMPOSITIONS AND METHODS FOR EXPANDING BFU-E CELLS” (priority 2010, published 2013)", "format_in_all_cases": "cell-based, mouse", "key": {"BFU-E cells [1]": {"tested_on": "BFU-E cells", "assay": "Single BFU-E cell culture in SFELE medium", "protocol": "(§1) FIGS. 1A-1F. Glucocorticoids stimulate stress erythropoiesis by enhancing erythroblast output predominantly from BFU-E progenitors. […] Error bars show one standard deviation. […] Error bars show one standard deviation. […] Shown is the fraction of c-kit+ cells after 72 hours. […] Cell numbers in each clone were estimated under the microscope on Day 8. 80% of sorted BFU-E cells form more than 100 daughter cells in erythroid expansion culture.\nThe “BFU-E” cell population that contains the GC-responsive cells, while highly enriched for BFU-Es, is a heterogeneous mix of erythroid progenitors. In order to determine the effect of GCs at the single cell level, we performed single “BFU-E” cell culture experiments (FIG. 1E)."}, "CFU-E cells [2]": {"tested_on": "CFU-E cells", "assay": "Colony forming assays of sorted CFU-E fractions (Table S2)", "source_text": "Separation of BFU-E and CFU-E cells by expression of CD71, CD24a or both CD71 and CD24a. C-kit positive BFU-E and CFU-E cells were sorted from FLEP cells based on expression of CD71, CD24a or both CD71 and CD24a. In all experiments the BFU-E fraction was the subset of c-kit^positive FLEP cells with the 10% lowest expression of CD71 and/or CD24a, while the CFU-E fraction was the subset with 20% highest expression of CD71 and/or CD24a. Sorted BFU-E and CFU-E populations were subjected to colony forming assays under two different conditions.\nThe potential of the sorted cells to form large BFU-E, small BFU-E, CFU-G/M/Mk, and CFU-GEMM colonies (±standard deviation) was determined by a second assay in methyl cellulose containing 10U Epo, 20 nM IL-3, 20 nM IL-6 and 50 nM SCF per mL, and was scored at day 8-9. […] To determine the effect of DMOG, colony assays of sorted BFU-E (CD71 and CD24a^10% low) cells were also performed in the presence of 333 μM DMOG.\nColonies were scored after 3 days. […] The number of hemoglobinized early BFU-E and late BFU-E colonies was determined after 8-9 days following staining with 2,7-Diaminofluorene (Sigma Chemical, St. Louis, Mo.)."}, "BFU-E cells [3]": {"tested_on": "BFU-E cells", "assay": "FACS analysis of c-kit expression of BFU-E cells in SFELE culture", "settings": "day 3 of culture, 100 nM Dex", "protocol": "as §1"}, "CFU-E cells [4]": {"tested_on": "CFU-E cells", "assay": "SFELE progenitor growth assay of sorted CFU-E cells", "settings": "100 nM Dex", "protocol": "FIGS. 1A-1F. […] Error bars show one standard deviation. […] Error bars show one standard deviation. […] Shown is the fraction of c-kit+ cells after 72 hours. […] Cell numbers in each clone were estimated under the microscope on Day 8.\nFIGS. 3A-3B. […] The experimental protocol was similar to that used in FIGS. 1A and B except that the CFU-E and BFU-E cells were purer (CD71 and CD24a^20% high and CD71 and CD24a^10% low, respectively). […] (A) Proliferation of sorted CFU-E cells. […] Error bars show one standard deviation. (B) Proliferation of sorted BFU-E cells. […] Error bars show one standard deviation.\nWe developed a modified version of the serum free erythroid liquid expansion culture (SFELE) medium described by Dolzning et al. (Dolznig et al., 2006)."}, "[5]": {"settings": "CD24a 20% high cells, 100 nM Dex"}, "[6]": {"settings": "CD71 20% high cells, 100 nM Dex"}, "[7]": {"settings": "CD71 and CD24a 20% high cells (n = 1), line marked +"}, "[8]": {"settings": "sorted CD71 20% high cells, with Dex"}}, "data": [{"smiles": "C[C@@H]1C[C@H]2[C@@H]3CCC4=CC(=O)C=C[C@]4(C)[C@@]3(F)[C@@H](O)C[C@]2(C)[C@@]1(O)C(=O)CO", "note": "[Dex, dexamethasone]", "values": [{"measurement": "Erythroblasts generated by individual BFU-E cells", "setting": "BFU-E cells [1]; day 8, 100 nM Dex", "value": "more than 300,000 erythroblasts"}, {"measurement": "Cell divisions performed by some BFU-E cells", "setting": "BFU-E cells [1]; in 8 days, 100 nM Dex", "value": "more than 18 cell divisions"}, {"measurement": "Additional cell divisions allowed", "setting": "BFU-E cells [1]; single cell level, 100 nM Dex versus without Dex", "value": "more than 6 cell divisions"}, {"measurement": "CFU-G/M/Meg colonies", "setting": "CFU-E cells [2]; [5]", "value": "0.3 (±0.3) colonies per 1000 plated cells"}, {"measurement": "GEMM colonies", "setting": "CFU-E cells [2]; [5]", "value": "0 colonies per 1000 plated cells"}, {"measurement": "large BFU-E colonies", "setting": "CFU-E cells [2]; [5]", "value": "0.4 (±2) colonies per 1000 plated cells"}, {"measurement": "small BFU-E colonies", "setting": "CFU-E cells [2]; [5]", "value": "15 (±2) colonies per 1000 plated cells"}, {"measurement": "CFU-E colonies", "setting": "CFU-E cells [2]; [6]", "value": "565 (±120) colonies per 1000 plated cells"}, {"measurement": "CFU-G/M/Meg colonies", "setting": "CFU-E cells [2]; [6]", "value": "0 colonies per 1000 plated cells"}, {"measurement": "GEMM colonies", "setting": "CFU-E cells [2]; [6]", "value": "0 colonies per 1000 plated cells"}, {"measurement": "large BFU-E colonies", "setting": "CFU-E cells [2]; [6]", "value": "0 colonies per 1000 plated cells"}, {"measurement": "small BFU-E colonies", "setting": "CFU-E cells [2]; [6]", "value": "17 (±31) colonies per 1000 plated cells"}, {"measurement": "CFU-E colonies", "setting": "CFU-E cells [2]; [7]", "value": "526 colonies per 1000 plated cells"}, {"measurement": "CFU-G/M/Meg colonies", "setting": "CFU-E cells [2]; [7]", "value": "0 colonies per 1000 plated cells"}, {"measurement": "GEMM colonies", "setting": "CFU-E cells [2]; [7]", "value": "0 colonies per 1000 plated cells"}, {"measurement": "large BFU-E colonies", "setting": "CFU-E cells [2]; [7]", "value": "1 colonies per 1000 plated cells"}, {"measurement": "small BFU-E colonies", "setting": "CFU-E cells [2]; [7]", "value": "29 colonies per 1000 plated cells"}, {"measurement": "Cells forming early BFU-E-derived colonies", "setting": "CFU-E cells [2]; [8]", "value": 0, "unit": "%"}, {"measurement": "Cells forming late BFU-E-derived colonies", "setting": "CFU-E cells [2]; [8]", "value": 1.7, "unit": "%"}, {"measurement": "Cells forming single-CFU-E colonies", "setting": "CFU-E cells [2]; [8]", "value": 57, "unit": "%"}, {"measurement": "Cells still expressing c-kit", "setting": "BFU-E cells [3]", "value": 55, "unit": "%"}, {"measurement": "Average number of erythroblasts formed from each CFU-E cell", "setting": "CFU-E cells [4]", "value": 28}, {"measurement": "Expansion of sorted CFU-E cells (production of erythroblasts), peak", "setting": "CFU-E cells [4]; CD71 20% high cells, peak at day 3", "value": 28, "unit": "fold"}]}]}
